Data: patent publication US9492368B2, “External preparation for skin” (HAYASHIBARA CO., LTD., priority 2011, dated 2016)
Marks after values point to notes of the source that are not given here.

Tests used:
Format in all cases: cell-based, human
sphingomyelinase (SMase) = test: Real-time PCR gene expression in NHEK cells: sphingomyelinase; details: 1 μM, seven days, relative to control = 1.00
Description: (§1) Since glucosyladenosines were confirmed in Experiment 5 to have an action of enhancing the differentiation of keratinocytes effective for skin improvement, a test for examining the change of the expression level of a molecular marker gene of keratinocytes, as an index, was performed as follows using a real-time PCR analysis method to examine the above action in more detail. The expression level of a ceramide-synthesis-related gene was also studied to examine the influence of glucosyladenosines on ceramide synthesis that had been known to have an important role in moisturizing the skin and barrier function of the skin and deemed to be effective for skin improvement. As genes for analysis, profilaggrin (PFG: a later differentiation marker) and involucrin (INV: an early differentiation marker) as differentiation markers of keratinocytes and β-glucocerebrosidase (GCase) and sphingomyelinase (SMase) as ceramide-synthesis-related enzymes were selected, and a gene for cyclophilin B (CypB) as an internal standard upon practicing PCR reaction was used (see FIG. 7). NHEK cells were inoculated to 6-well plate coated with collagen in an amount of 8×10^4 cells/1.5 ml/well, cultured with EpiLife medium, and cultured at 37° C. for two days under a 5 v/v % CO2 condition. Thereafter, the culture medium was removed, and the resulting cells were added with a fresh EpiLife medium containing 5′-glucosyladenosine, 3′-glucosyladenosine, or adenosine in a volume of 1.5 ml/well (giving a final concentration of 1 μM of any one of glucosyladenosines and adenosine), and cultured for seven days while replacing the medium with a fresh one containing any one of glucosyladenosines and adenosine in a volume of 1.5 ml/well every other day. After completion of the culture, each well was washed twice with PBS(K−), followed by adding 0.2 ml/well of 0.025% by mass of trypsin/EDTA solution to the resulting cells and allowing the cells to stand at an ambient temperature for five minutes to detach them from the plates. […]

profilaggrin (PFG) = test: Real-time PCR gene expression in NHEK cells: profilaggrin; details: 1 μM, seven days, relative to control = 1.00
Description: as §1

[1] = system: β-glucocerebrosidase (GCase); test: Real-time PCR gene expression in NHEK cells: β-glucocerebrosidase; details: 1 μM, seven days, relative to control = 1.00
Description: as §1

NHDF cells = test: Collagen production by NHDF cells (Sircol collagen assay); details: three days
Excerpt: For the anti-wrinkle action of glucosyladenosines, the effect of glucosyladenosines on the collagen production in the dermis was examined as follows using a normal human fetal fibroblast (NHDF) commonly used for evaluating agents for enhancing collagen production in the skin. […] Thereafter, the culture supernatant in each well was removed by aspiration, and the resulting cells were washed with phosphate buffered saline (PBS), and admixed with pepsin, commercialized by Sigma-Aldrich Co. LLC., Missouri, USA, which had been diluted with 1 M acetic acid to give a concentration of 1 mg/ml, in a volume of 250 μl/well. The resulting plates were shaken at ambient temperature for four hours, and the cells adhered to the wells were detached therefrom with a cell scraper and subjected to pipetting, followed by collecting the resulting cell suspension after the pepsin digestion into “EPPENDORF TUBE”, a product name of a 1.5 ml microtube, commercialized by Eppendorf AG, Hamburg, Germany. “Sicrol Collagen Assay Kit”, a product name of a developing color reagent for quantifying collagen, commercialized by Biocolor, CA, USA, was added to the tubes in a volume of 500 μl/tube, mixed with a vortex mixer, kneaded by allowing the tubes upside-down at an ambient temperature for exact 30 min using “RT-50”, a product name of a rotator commercialized by TAITEC Corporation, Saitama, Japan, and centrifuged (1,500 rpm) at 4° C. for 10 min to remove supernatants. The resulting sediments were admixed with 1 N NaOH in a volume of 100 μl/tube and dissolved by pipetting. The resulting solutions were all transferred to “FALCON MICROTEST™96”, a product name of a 96-well microplate commercialized by Becton, Dickinson and Company, NJ, USA, and measured for absorbance (A560-A650) on “Vmax Microplate Reader”, a product name of an absorption spectrometer commercialized by Molecular Devices Corporation, CA, USA. The collagen level in each well was determined based on a standard curve prepared by using type I collagen commercialized by KOKEN Co., Ltd., Tokyo, Japan, and the data are shown in Table 6 in parallel.

SMILES | Gene expression level SMase (sphingomyelinase (SMase)) | Gene expression level PFG (profilaggrin (PFG)) | Gene expression level GCase [1] | Collagen production level (NHDF cells; 5 μM in medium) | Collagen production level (NHDF cells; 10 μM in medium)
Nc1ncnc2c1ncn2[C@@H]1O[C@H](CO)[C@@H](O[C@H]2O[C@H](CO)[C@@H](O)[C@H](O)[C@H]2O)[C@H]1O [3′-Glucosyladenosine, α-D-glucopyranosyl-(1→3′)-adenosine] | 2.03* | 2.03* | 2.08* | 3.39* μg/well | 4.37** μg/well
Nc1ncnc2c1ncn2[C@@H]1O[C@H](CO[C@H]2O[C@H](CO)[C@@H](O)[C@H](O)[C@H]2O)[C@@H](O)[C@H]1O [5′-Glucosyladenosine, α-D-glucopyranosyl-(1→5′)-adenosine] | 2.57** | 2.54** | 2.68** | 3.53* μg/well | 4.54** μg/well
Nc1ncnc2c1ncn2[C@@H]1O[C@H](CO)[C@@H](O)[C@H]1O [Adenosine, reference compound] | 1.35 | 1.41 | 1.37 | 2.61 μg/well | 3.02* μg/well
